The values that follow come from US20070117784A1, “Treatment of hyperproliferative diseases with anthraquinones” (Novacea, Inc., priority 2005, published 2007).

As usually defined, the IC50 is the concentration at which inhibition is half-maximal. A high value points to lower potency. By TGI is commonly meant the reduction of tumour growth relative to the control group. A low value points to a weaker effect on the tumour.

Data set [1] has as its system HT-29. In words: MTS cytotoxicity assay, HT-29. It counts as cell-based. The note with it: normoxic, 24 h exposure. On the technique in general: Tetrazolium assays rely on reduction of a dye to a coloured formazan, in cell work by metabolically active cells.
Data set [2] relates to HCT116. In words: MTS cytotoxicity assay, HCT116. Particulars: 24 h exposure. Format: cell-based.
Data set [3] has as its system LoVo. In words: MTS cytotoxicity assay, LoVo. It counts as cell-based. Particulars: normoxic, 24 h exposure.
Data set [4] has as its system LS174T. In words: MTS cytotoxicity assay, LS174T. Format: cell-based. The note with it: normoxic, 24 h exposure.
Data set [5] relates to U87MG. In words: MTS cytotoxicity assay, U87MG. Format: cell-based. Particulars: Homo sapiens, U-87 MG, normoxic, 24 h exposure.
Data set [6] concerns U118MG. Briefly: MTS cytotoxicity assay, U118MG. It counts as cell-based. Particulars: Homo sapiens, U-118-MG, normoxic, 24 h exposure.
The test system of data set [7] is U251. Briefly: MTS cytotoxicity assay, U251. It counts as cell-based. Particulars: Homo sapiens, U-251, normoxic, 24 h exposure.
Data set [8] relates to FaDu. Briefly: MTS cytotoxicity assay, FaDu. Format: cell-based. The note with it: Homo sapiens, normoxic, 24 h exposure.
Data set [9] concerns KB. Briefly: MTS cytotoxicity assay, KB. Format: cell-based. Particulars: Homo sapiens, normoxic, 24 h exposure.
In data set [10] the test system is KB-3. In words: MTS cytotoxicity assay, KB-3. The note with it: KB3; KB-3 (radiation-resistant); normoxic; 24 h exposure. It counts as cell-based.
Data set [11] deals with Hep3B2.1-7. In words: MTS cytotoxicity assay, Hep3B2.1-7. It counts as cell-based. The note with it: normoxic, 24 h exposure.
Data set [12] has as its system A375-SM. In words: MTS cytotoxicity assay, A375-SM. Format: cell-based, mouse. The note with it: Homo sapiens, normoxic, 24 h exposure.
For data set [13], the system named is B16-F10. In words: MTS cytotoxicity assay, B16-F10. Format: cell-based, human. The note with it: Mus musculus, normoxic, 24 h exposure.
The conditions of data set [14]: mouse, in vivo.
For data set [15] the following is noted: single 20 mg/kg dose of AQ4N; previous studies; cited from earlier work.
Data set [16] relates to bladder cancer cell lines. The note with it: previous data; cited from earlier work.
For data set [17], the system named is Raji. Briefly: MTS cytotoxicity assay, Raji. The note with it: Homo sapiens, 24 h.
The test system of data set [18] is KG1a. Briefly: MTS cytotoxicity assay, KG1a. Particulars: Homo sapiens, KG-1a, 24 h.
The test system of data set [19] is K562. Briefly: MTS cytotoxicity assay, K562. The note with it: Homo sapiens, K562, 24 h.
For data set [20], the system named is P388. Briefly: MTS cytotoxicity assay, P388. Particulars: Mus musculus, P388, 24 h.
Data set [21] has as its system Daudi. In words: MTS cytotoxicity assay, Daudi. The note with it: Homo sapiens, 24 h.
For data set [22], the system named is Ramos. In words: MTS cytotoxicity assay, Ramos. Particulars: Homo sapiens, 24 h.
Data set [23] concerns HL-60. In words: MTS cytotoxicity assay, HL-60. Particulars: Homo sapiens, HL-60, 24 h.
Data set [24] concerns L1210. In words: MTS cytotoxicity assay, L1210. The note with it: Mus musculus, L1210, 24 h.
In data set [25] the test system is MOLT-4. In words: MTS cytotoxicity assay, MOLT-4. The note with it: Homo sapiens, MOLT-4, 24 h.
For data set [26], the system named is L5178Y. Briefly: MTS cytotoxicity assay, L5178Y. The note with it: Mus musculus, 24 h.
Data set [27] deals with ARH177. In words: MTS cytotoxicity assay, ARH177. Particulars: 24 h.
Data set [28] has as its system BXPC-3. Briefly: MTS cytotoxicity assay, BXPC-3. Particulars: Homo sapiens, BXPC-3, 24 h.
Data set [29] deals with Panc-1. In words: MTS cytotoxicity assay, Panc-1. Particulars: Homo sapiens, PANC-1, 24 h.
The subject of data set [30] is Namalwa. In words: MTS cytotoxicity assay, Namalwa. Particulars: Homo sapiens, 24 h.
Data set [31] deals with MiaPaCa. Briefly: MTS cytotoxicity assay, MiaPaCa. Particulars: Homo sapiens, MIA PaCa-2, 24 h.
For data set [32], the system named is CCRF-CEM. Briefly: MTS cytotoxicity assay, CCRF-CEM. Particulars: Homo sapiens, 24 h.
Data set [33] has as its system RPMI8226. Briefly: MTS cytotoxicity assay, RPMI8226. The note with it: Homo sapiens, RPMI-8226, 24 h.
Data set [34] concerns CCRF-CEM/VLB. In words: MTS cytotoxicity assay, CCRF-CEM/VLB. Particulars: Homo sapiens, 24 h.
For data set [35], the system named is RPMI8226/Dox. Briefly: MTS cytotoxicity assay, RPMI8226/Dox. Particulars: Homo sapiens, RPMI-8226, 24 h.
The test system of data set [36] is MO59K cells (glioblastoma). In words: Colony formation assay, combination with temozolomide and radiation.
The test system of data set [37] is human Panc-1 tumors. In words: sc Panc-1 pancreatic xenograft, tumor growth delay. Format: in vivo, nude mice. The note with it: Panc-1 sc, gemcitabine treatment. The procedure:
Mice were actively sacrificed as a cancer death when their tumors reached 1200 mm^3. Shown are Kaplan-Meier plots summarizing the percentage of the animals remaining in the study as a function of time following tumor inoculation. Treatment outcome was determined from TGD, defined as the increase in median TTE in a treatment group as compared to the control group.
In each case, a range of AQ4N dose schedules were evaluated to determine the optimum dosage for efficacy as a single agent.
In the Panc-1 model, the endpoint of the study was pre-defined to be when tumors reached 1200 mm^3 and treatment outcome was determined from tumor growth delay (TGD). TGD is defined as the increase in median time to endpoint (TTE) in a treatment group as compared to the control group, and expressed in days or as a percentage of the median TTE vs. the control group.

Data set [38] has as its system human BxPC-3 pancreatic carcinoma. In words: sc BxPC-3 pancreatic xenograft, tumor growth inhibition. Format: in vivo, nude mice. Particulars: BxPC-3 sc. The method, then:
Shown are the mean (±SEM) tumor volumes measured from treatment and control groups following tumor challenge. The study was terminated when tumors from the vehicle-treated group reached an average of approximately 2 grams (day 27) and the % TGI was calculated as defined in the text. […] Animals were actively sacrificed when they became moribund from excessive tumor burden.

Data set [39] concerns BxPC-3 pancreatic carcinoma (orthotopic). Briefly: Orthotopic BxPC-3 pancreatic carcinoma model, survival. Particulars: BxPC-3 ot; gemcitabine treatment; P=0.04.

Turning to `CN(C)CCNc1ccc(NCCN(C)C)c2c1C(=O)c1c(O)ccc(O)c1C2=O` [AQ4, 1,4-bis{[2-(dimethylamino)ethyl]amino}-5,8-dihydroxyanthracene-9,10-dione], the half-maximal inhibitory concentration (IC50) was 700 nM in data set [1] (Homo sapiens); 3900 nM in [2] (Homo sapiens, HCT-116, normoxic); 210 nM in data set [3] (Homo sapiens); 950 nM in [4] (Homo sapiens); 900 nM in data set [5]; 1300 nM in [6]. The IC50 in data set [7] was 600 nM; in [8], 0.3 µM; in data set [9], 600 nM; in data set [10], 3.3 µM; in data set [11] it was 0.8 µM; in data set [12], 3.3 µM. The IC50 in data set [13] was 20 nM; in [17] it was 200 nM; in data set [18], 50 nM; in data set [19], 400 nM; in data set [20], 10 nM; in data set [21], 4.6 nM. The IC50 is 8 nM in [22]; 10 nM in data set [23]; 1.2 nM in data set [24]; 2 nM in data set [25]; 30 nM in data set [26]; 200 nM in data set [27]. Besides, the half-inhibitory concentration (IC50) in data set [28] is 1600 nM; in data set [29], 400 nM; in [30] it was 0.2 nM; in data set [31], 1600 nM; in data set [32], 620 nM; in data set [33], 200 nM. Further, the results for the half-maximal inhibitory concentration (IC50) in data set [34] and in [35] were 0.34 µM and 1.1 µM, respectively. The “tumor accumulation vs dose” value in data set [14] (240 mg/kg) is “dose-dependent fashion”. In addition, the “percent of near maximal tumor levels after 2 hr post-infusion” value in data set [14] (2 h) is given as 55-85%. The “percent of conversion occurring by 8 hr” value in [14] (8 h) was 80-100%. Further, the “time AQ4 can be detected in tumor tissues” value in data set [15] is reported as “at least 2 weeks”. Besides, the interaction with radiation result in data set [16] is recorded as “additive interactions”. Further, the “combined cytotoxic effect with temozolomide and radiation” value in data set [36] (48 hr combined treatment, 1.5 Gy at 24 hr, FIG. 24) is “additive and synergistic cytotoxic effects”. For the same compound, the “combined cytotoxic effect with temozolomide” value in data set [36] (48 hr temozolomide, 10-day colony formation, FIG. 23) was “additive and synergistic cytotoxic effects”.

For the compound `CN(C)CCNc1ccc(NCC[N+](C)(C)[O-])c2c1C(=O)c1c(O)ccc(O)c1C2=O` [AQ4M], in data set [14], the “tumor level by 8 h” value is on record as “minimal levels by 8 h for most doses” and the “tumor level vs dose at 2 hr” value was “approximately linear with increasing dose”. Further, the “plasma level at 2 hr” value (240 mg/kg AQ4N dose) was “only trace amounts”. In addition, the “metabolite detection in plasma” value (any AQ4N dose or time point) is listed as “undetectable”.

As for `COc1cccc2c1C(=O)c1c(O)c3c(c(O)c1C2=O)C[C@@](O)(C(=O)CO)C[C@@H]3O[C@H]1C[C@H](N)[C@H](O)[C@H](C)O1` [Dox, doxorubicin, reference compound], the IC50 amounted to 400 nM in data set [5]; 30 nM in [6]; 30 nM in data set [7]; 0.9 nM in data set [17]; 600 nM in data set [18]; 100 nM in [20]. Further, the IC50 in data set [21] came to 0.5 nM; in data set [22] it was 1.8 nM; in data set [23], 100 nM; in [24] it was 50 nM; in data set [25] it was 7.5 nM; in [26], 50 nM. In addition, the results for the IC50 in data set [30], in data set [33] and in data set [35] were 7.4 nM, 100 nM and 54.7 µM, respectively.

`CCc1c2c(nc3ccc(O)cc13)-c1cc3c(c(=O)n1C2)COC(=O)[C@]3(O)CC` [SN38, 7-ethyl-10-hydro-camptothecin, reference compound]: the IC50 in [1] came out at 65.1 nM; in [2] (normoxic), 48.4 nM; in [3], 0.6 nM; in [4] it was 2.6 nM.

On to `CC(=O)O[C@H]1C(=O)[C@@]2(C)[C@H]([C@H](OC(=O)c3ccccc3)[C@]3(O)C[C@H](OC(=O)[C@H](O)[C@@H](NC(=O)c4ccccc4)c4ccccc4)C(C)=C1C3(C)C)[C@]1(OC(C)=O)CO[C@@H]1C[C@@H]2O` [Taxol, reference compound], for which the IC50 in [8] is 6.5 µM; in data set [9], 2000 nM; in data set [10] it was 19.1 µM; in [11] it was 13.7 µM.

`CCC1=C[C@@H]2CN(C1)Cc1c([nH]c3ccccc13)[C@@](C(=O)OC)(c1cc3c(cc1OC)N(C)[C@H]1[C@@](O)(C(=O)OC)[C@H](OC(C)=O)[C@]4(CC)C=CCN5CC[C@]31[C@@H]54)C2` [VLB, vinorelbine, reference compound]: the IC50 in data set [32] came out at 10 nM; in [34], 1040 µM.

Regarding `Nc1ccn([C@@H]2O[C@H](CO)[C@@H](O)C2(F)F)c(=O)n1` [gemcitabine], the “TGD as percentage of median TTE vs control” value in [37] was found to be 19%. Moreover, the TTE in data set [37] (endpoint 1200 mm^3) is 34.2 days. In data set [37] (non-significant), the “TGD (tumor growth delay)” value is recorded as 5.4 days. In [38] (gemcitabine treatment, ~day 27), the TGI is given as 51%. For the same compound, the “TGI in comparison to vehicle-treated groups” value in [38] (single-agent, p<0.001, FIG. 20A) is reported as “significant TGI”. Besides, the IC50 in data set [28] amounted to 59.5 nM; in data set [29], 1700 nM; in data set [31] it was 23 nM. This compound also yielded a median survival in data set [39] of 40 days.
